Data published in patent US20210052598A1, “COMPOSITIONS AND METHODS FOR TREATING CANCER” (Beth Israel Deaconess Medical Center, Inc., priority 2018, published 2021).
Entries after “also recorded” stand apart in the source; their conditions may differ. Where a SMILES comes first, the peptide text is derived from it. The star is where a group is joined. Cbz = O=C(OCc1ccccc1)*

Experiments:
HAP1 cells [1] = assay: Seahorse XF24 extracellular acidification rate (ECAR) analysis, HAP1 cells; type: cell-based, human; conditions: 1 μM for 24 hours
Method: (§1) LNCaP cells were treated with 0, 1, 3, 10 or 30 μM SKPin C1 for 24 hours, harvested for immunoblot analysis of indicated proteins. […] 22Rv1 cells were treated with 10 μM SKPin C1 for 24 hours, harvested for fraction of cytoplasm (C), mitochondria (M), and nuclei (N), followed by immunoblot analysis of indicated proteins. FIG. 11C is a graph showing depletion of endogenous ID111 or IDH2 abolishes the effect of SKPin C1 on OCR. HAP1-IDH1^−/−, IDH2^−/− and parental cells were treated with 3 μM SKPin C1 for 24 hours, followed by OCR analysis by Seahorse XF 24 analyzer. The concentration of oligomycin, FCCP and antimycin A are 1 μM, 0.6 μM and 3 μM, respectively (mean±s.e.m, n=3). […] HAP1-Skp2^+/+ and Skp2^−/− cells were treated with indicated SKPin C1 for 24 hours, followed by immunoblot analysis for indicated proteins. […] Statistical analysis, ** p<0.01. […] Statistical analysis, * p<0.05, ** p<0.01. […] HAP1-Skp2^+/+ and Skp2^−/− cells were treated with 1 μM SKPin C1 for 24 hours, followed by ECAR analysis by Seahorse XF 24 analyzer. […] HAP1-Skp2^+/+ and Skp2^−/− cells were treated with 1 μM SKPin C1 for 24 hours, followed by OCR analysis by Seahorse XF 24 analyzer. […]
(§2) Oxygen consumption rate (OCR) and extracellular acidification rate (ECAR) were measured using Seahorse XF24 analyzer (Boston, Mass., USA). […]

LNCaP cells = assay: Colony formation assay, LNCaP cells; type: cell-based, human; conditions: 1500 cell/well, 0, 0.1, 0.3, or 1 μM for 7 days, fresh media another 3 weeks
Method: (§3) 22-Rv1 cells were treated with 0, 1, 3, 10, or 30 μM SKPin C1 for 24 hours, and then harvested for immunoblot analysis. […] LNCaP and 22-Rv1 cells were plated in 6-well plate (1500 cell/well), treated with 0, 0.1, 0.3, or 1 μM Skin C1 for 7 days, and changed to fresh media for another 3 weeks. […] HAP1-IDH1^−/−, HAP1-IDH2^−/− and parental cells were treated with 3 μM SKPin C1 for 24 hours, followed by OCR analysis by Seahorse XF 24 analyzer. * p<0.05.
(§4) Cells were cultured in 10% FBS containing DMEM or RPMI-1640 media before plating into 6-well plate at 10,000 cells (3,000 cells for HeLa) per well. Ten days later, cells were fixed with 10% acetic acid/10% methanol for 10 min, stained with 0.4% crystal violet/20% ethanol, followed by counting the colony numbers. For soft agar assays, cells were seeded in 0.4% low-melting-point agarose in DMEM or RPMI-1640 with 10% FBS at 100,000 per well (30,000 cells for HeLa), layered onto 0.8% agarose in DMEM or RPMI-1640 with 10% FBS. The plates were kept in the cell culture incubator for 3-4 weeks after which the cells were stained with iodonitrotetrazolium chloride and colonies were counted.

IDH1 and IDH2 [2] = assay: Immunoblot of IDH1 and IDH2 after SKPin C1 treatment, LNCaP cells; type: cell-based, human; conditions: LNCaP cells, 0, 1, 3, 10 or 30 μM for 24 hours
Method: (§5) LNCaP cells were treated with 0, 1, 3, 10 or 30 μM SKPin C1 for 24 hours, harvested for immunoblot analysis of indicated proteins. […] 22Rv1 cells were treated with 10 μM SKPin C1 for 24 hours, harvested for fraction of cytoplasm (C), mitochondria (M), and nuclei (N), followed by immunoblot analysis of indicated proteins. FIG. 11C is a graph showing depletion of endogenous ID111 or IDH2 abolishes the effect of SKPin C1 on OCR. HAP1-IDH1^−/−, IDH2^−/− and parental cells were treated with 3 μM SKPin C1 for 24 hours, followed by OCR analysis by Seahorse XF 24 analyzer. The concentration of oligomycin, FCCP and antimycin A are 1 μM, 0.6 μM and 3 μM, respectively (mean±s.e.m, n=3). […] HAP1-Skp2^+/+ and Skp2^−/− cells were treated with indicated SKPin C1 for 24 hours, followed by immunoblot analysis for indicated proteins. […] Statistical analysis, ** p<0.01. […] Statistical analysis, * p<0.05, ** p<0.01. […]
(§6) Cells were lysed in EBC buffer (50 mM Tris pH 7.5, 120 mM NaCl, 0.5% NP-40) supplemented with protease inhibitors (cOmplete Mini, Roche) and phosphatase inhibitors (phosphatase inhibitor cocktail set I and II, Calbiochem). The protein concentrations of the lysates were measured using the Bio-Rad protein assay reagent on a Beckman Coulter DU-800 spectrophotometer. […]

22-Rv1 cells = assay: Colony formation assay, 22-Rv1 cells; type: cell-based, human; conditions: 22-Rv1, 1500 cell/well, 0, 0.1, 0.3, or 1 μM for 7 days, fresh media another 3 weeks
Method: as §3, §4

HAP1 cells [3] = assay: Seahorse XF24 oxygen consumption rate (OCR) analysis, HAP1 cells; type: cell-based, human
Method: as §1, §2

IDH1 and IDH2 [4] = assay: Immunoblot of IDH1 and IDH2 after SKPin C1 treatment, 22-Rv1 cells; type: cell-based, human; conditions: 22-Rv1 cells, 0, 1, 3, 10, or 30 μM for 24 hours
Method: as §3
HeLa and HCT116 cells were used for synchronization. HeLa cells, which have low endogenous Skp2 activity, were used for ectopic expression-based degradation assays. HEK293 cell line was used for ubiquitination assays and co-IP assays to define the interaction between two ectopically expressed proteins, which is the most frequently used cell line for this type of experiment. Human prostate cancer cells, DU145, PC3, LNCaP, VCaP, 22Rv1 and C4-2 were used for compared endogenous Skp2 and IDH1 levels, as well as Skp2 knockdown and Skp2 overexpression. […]
as §6

IDH1 and IDH2 [5] = assay: Fractionation of cytoplasm, mitochondria and nuclei with immunoblot, 22Rv1 cells; type: cell-based, human; conditions: 10 μM for 24 hours
Method: LNCaP cells were treated with 0, 1, 3, 10 or 30 μM SKPin C1 for 24 hours, harvested for immunoblot analysis of indicated proteins. […] 22Rv1 cells were treated with 10 μM SKPin C1 for 24 hours, harvested for fraction of cytoplasm (C), mitochondria (M), and nuclei (N), followed by immunoblot analysis of indicated proteins. FIG. 11C is a graph showing depletion of endogenous ID111 or IDH2 abolishes the effect of SKPin C1 on OCR. HAP1-IDH1^−/−, IDH2^−/− and parental cells were treated with 3 μM SKPin C1 for 24 hours, followed by OCR analysis by Seahorse XF 24 analyzer. The concentration of oligomycin, FCCP and antimycin A are 1 μM, 0.6 μM and 3 μM, respectively (mean±s.e.m, n=3). […] HAP1-Skp2^+/+ and Skp2^−/− cells were treated with indicated SKPin C1 for 24 hours, followed by immunoblot analysis for indicated proteins. […] Statistical analysis, ** p<0.01. […] Statistical analysis, * p<0.05, ** p<0.01. […] HAP1-Skp2^+/+ and Skp2^−/− cells were treated with 1 μM SKPin C1 for 24 hours, followed by ECAR analysis by Seahorse XF 24 analyzer. […] HAP1-Skp2^+/+ and Skp2^−/− cells were treated with 1 μM SKPin C1 for 24 hours, followed by OCR analysis by Seahorse XF 24 analyzer. The concentration of oligomycin, FCCP and antimycin A are 1 μM, 0.6 μM and 3 μM, respectively (mean±s.e.m, n=3, ** p<0.01, *** p<0.001).
Cells were harvested and subjected to fractionation of cytoplasm (C), mitochondria (M), and nuclei (N) using Cell Fractionation kit (ab109719, Abcam). All fractions and the whole cell lysate (WCL) were subjected to immunoblot analysis for the indicated proteins, with tubulin, citrate synthase, and Histone H3 as markers of cytoplasm, mitochondria, and nucleus, respectively.

IDH1 and IDH2 [6] = assay: Immunoblot of IDH1 and IDH2 in HAP1-Skp2+/+ and Skp2-/- cells; type: cell-based, human; conditions: 24 hours
Method: as §5, §6

IDH1 and IDH2 [7] = assay: Immunoblot of IDH1 and IDH2 after MG132 or MLN4924, RWPE1 cells; type: cell-based; conditions: 10 μM for 8 hours
Method: RWPE1 cells were incubated with 10 μM MG132 or MLN4924 for 8 hours, followed by immunoblot analysis of IDH1 and IDH2. FIG. 16B are immunoblots showing that IDH1 specifically interacts with Cullin 1 in cells. Immunoblot analysis of immunoprecipitates (IP) and whole cell lysates (WCL) derived from HEK293 cells transfected with Flag-IDH1 and the indicated Myc-tagged Cullins for 48 hours. FIG. 16C are immunoblots showing that IDH1 specifically interacts with two F-box proteins, Skp2, and to a lesser extent, Fbw4, in cells. Immunoblot analysis of IP and WCL derived from HEK293 cells transfected with Flag-IDH1 and the indicated CMV-GST-tagged F-box proteins for 48 hours. FIG. 16D are immunoblots showing depletion of SKP2 in HeLa cells leads to accumulated IDH1. […] The labeled glycolytic intermediates were measured using HPLC-MS. n=3, * p<0.05, ** p<0.01, ***p<0.001. […] The labeled TCA cycle intermediates were measured using HPLC-MS. n=3, * p<0.05, ** p<0.01, *** p<0.001.
as §6

| Structure (SMILES) | Effect on ECAR in HAP1-Skp2+/+ and Skp2-/- cells (HAP1 cells [1]) | Colony growth (LNCaP cells) | IDH1 and IDH2 protein abundance (immunoblot) (IDH1 and IDH2 [2]) | Colony growth (22-Rv1 cells) | Effect on OCR in HAP1-Skp2+/+ and Skp2-/- cells (HAP1 cells [3]; 1 μM for 24 hours) | Effect on OCR in HAP1-IDH1-/-, HAP1-IDH2-/- and parental cells (HAP1 cells [3]; 3 μM for 24 hours) | IDH1 and IDH2 protein abundance (immunoblot) (IDH1 and IDH2 [4]) | IDH1 localization after treatment (IDH1 and IDH2 [5]) | IDH2 localization after treatment (IDH1 and IDH2 [5]) | IDH1 and IDH2 protein abundance in cell fractions (IDH1 and IDH2 [5]; cytoplasm/mitochondria/nuclei fractions) | Effect on IDH1 and IDH2 in HAP1-Skp2+/+ and Skp2-/- cells (IDH1 and IDH2 [6]) | IDH1 and IDH2 protein abundance (immunoblot) (IDH1 and IDH2 [7]) |
| --- | --- | --- | --- | --- | --- | --- | --- | --- | --- | --- | --- | --- |
| O=C(O)COc1ccc(Br)cc1/C=C1\SC(=S)N(Cc2cccnc2)C1=O [SKPin C1] | depletion of Skp2 abolishes the effect of SKPin C1 on ECAR | blocks the colony growth | significantly stabilized both IDH1 and IDH2; also recorded: accumulated protein abundance of IDH1 and IDH2 | blocks the colony growth | depletion of Skp2 abolishes the effect of SKPin C1 on OCR | depletion of endogenous IDH1 or IDH2 abolishes the effects of SKPin C1 on OCR | significantly stabilized both IDH1 and IDH2; also recorded: robust accumulation of IDH1 and IDH2 | mainly localized in the cytoplasmic fraction regardless of SKPin C1 treatment | detected in the cytoplasmic fraction | accumulated protein abundance of IDH1 and IDH2 in cytoplasm | depletion of Skp2 abolishes the effect of SKPin C1 on IDH1 and IDH2 | – |
| NS(=O)(=O)OC[C@@H]1C[C@@H](n2ccc3c(N[C@H]4CCc5ccccc54)ncnc32)C[C@@H]1O [MLN4924] | – | – | – | – | – | – | – | – | – | – | – | elevated; also recorded: accumulation of IDH1 and IDH2 |
| CC(C)C[C@@H](C=O)NC(=O)[C@H](CC(C)C)NC(=O)[C@H](CC(C)C)NC(=O)OCc1ccccc1 [MG132] (Cbz-Leu-Leu-Leu-aldehyde) | – | – | – | – | – | – | – | – | – | – | – | elevated; also recorded: accumulation of IDH1 and IDH2 |
